Laboratory results as given in PubChem BioAssay (NCI).
“And” between values parts separate entries of the source, which are not always exact repeats. Equal values may be shown once.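 How tested: cells in 96-well plates exposed to compound for 48 hours at five concentrations. GI50 is the concentration that inhibits growth by half. At the TGI there is no net growth.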

What was measured:
Assay in all cases: growth of human tumour cells (NCI), 48 h
UO-31 renal = test system: UO-31 renal
NCI-H226 lung = test system: NCI-H226 lung
NCI-H23 lung = test system: NCI-H23 lung
HL-60(TB) leukemia = test system: HL-60(TB) leukemia
NCI-H460 lung = test system: NCI-H460 lung
SF-295 CNS = test system: SF-295 CNS
U251 CNS = test system: U251 CNS
TK-10 renal = test system: TK-10 renal

Compound | GI50 (UO-31 renal) [µM] | TGI (UO-31 renal) | GI50 (NCI-H226 lung) [µM] | TGI (NCI-H226 lung) | GI50 (NCI-H23 lung) [µM] | TGI (NCI-H23 lung) | GI50 (HL-60(TB) leukemia) [µM] | TGI (HL-60(TB) leukemia) [µM] | GI50 (NCI-H460 lung) [µM] | TGI (NCI-H460 lung) | GI50 (SF-295 CNS) [µM] | TGI (SF-295 CNS) | GI50 (U251 CNS) [µM] | TGI (U251 CNS) | GI50 (TK-10 renal) [µM] | TGI (TK-10 renal)
COc1ccc(-c2cnc(-c3ccc(F)cc3)[nH]2)cc1 | 6.59 | 20.4 µM | 11 | > 62.3 µM | 10.6 | 46.6 µM | 2.03 | 23.4 | 8.37 | 29.6 µM | 1.54 | 3.43 µM | 6.3 | 17.2 µM | 2.58 | 8.81 µM
Nc1c(C(=O)c2cccc(OCCN3CCOCC3)c2)cnn1-c1ccc(F)cc1 | > 25 | > 25 µM | > 25 | > 25 µM | > 25 | > 25 µM | > 25 | > 25 | > 25 | > 25 µM | > 25 | > 25 µM | > 25 | > 25 µM | > 25 | > 25 µM
C(CCc1nnc2c(n1)CCCC2)Cc1nnc2c(n1)CCCC2 | – | > 100 µM | – | > 100 µM | – | > 100 µM | – | > 100 | – | > 100 µM | – | > 100 µM | – | > 100 µM | – | > 100 µM
CN(C)CCNC(=O)c1cccc2cc3ccccc3nc12 | 1.11 | 4.06 µM | 0.961 | 3.85 µM | 1.8 | 5.13 µM | 1.03 | 5.3 | 0.426 | 1.98 µM | 1.26 | 4.62 µM | 1.02 | 4.91 µM | 1.23 | 4.08 µM
COC(=O)c1ccc(=O)c2nc3/c(=C/O)c(O)cc(=O)c3[nH]c12 | 0.578 | 8.11 µM and 18 µM | 0.726 | 12.2 µM and 12.8 µM | 0.514 | 9.33 µM and 16.7 µM | 0.601 | 19.3 | 0.357 | 23.8 µM and 19.7 µM | 0.153 | 14.3 µM and 8.64 µM | 0.176 | 28.6 µM and 12.3 µM | 1.3 | 21.1 µM and 17.5 µM
C=C(CN1CCN(c2cccc(C(F)(F)F)c2)CC1)c1ccc(C(=O)Nc2ccccc2N)cc1 | 2.4 | 12.1 µM | 1.89 | 20.1 µM | 3.72 | > 32.9 µM | 0.118 | 0.856 | 1.56 | > 24.8 µM | 0.537 | 3.88 µM | 1.18 | 5.84 µM | 0.807 | 5.31 µM
CS(=O)(=O)N1CCN(Cc2cc3nc(-c4cccc5[nH]ncc45)nc(N4CCOCC4)c3s2)CC1 (tested in a mixture with another compound) | 0.0493 | 0.292 µM | 0.374 | – | 0.26 | – | 0.0575 | 34 | 0.0796 | – | 0.062 | 0.468 µM | 0.213 | – | 0.129 | –
COc1cc2c3c(n(CCN)c(=O)c2cc1OC)-c1cc2c(cc1C3=O)OCO2 | 0.226 | 1.91 µM | 0.769 | 2.55 µM | 0.0788 | 1.06 µM | – | > 100 | < 0.01 | 3.24 µM | < 0.0352 | 2.09 µM | 0.367 | – | 1.79 | 3.63 µM
C=C1C(=O)O[C@H]2[C@H]1CC/C(COC(=O)C(=O)c1c[nH]c3ccc(OC)cc13)=C\CC[C@@]1(C)O[C@@H]21 | 4.6 | 7.91 µM | 5.84 | 9.99 µM | 7.01 | 13.8 µM | 5.13 | 12.5 | 10.2 | 24.8 µM | 12.4 | 29.5 µM | 7.06 | 10.8 µM | 6.41 | 14.5 µM
COc1cc2c3c(n(CCCN4CCN(C)CC4)c(=O)c2cc1OC)-c1cc2c(cc1C3=O)OCO2 | 20.6 | 62.8 µM | 13.9 | 31 µM | 11.9 | 24.1 µM | 19.5 | 57.6 | 5.8 | 28.2 µM | 10.7 | 31.7 µM | 11.4 | 27.5 µM | 17.1 | 31.9 µM
O=C1/C(=C/c2ccccc2)SC(=Nc2ccccc2)N1Nc1ccccc1 | 7.94 | > 100 µM | 10.9 | 30.5 µM | 22.6 | > 100 µM | 10.4 | 68.9 | 15.9 | 57.3 µM | 16.3 | > 100 µM | 12.9 | > 100 µM | 36.5 | > 100 µM
Cn1ccc(=Nc2ccc(NC(=O)c3ccc(N=c4ccn(C)c5ccc([N+](=O)[O-])cc45)cc3)cc2)cc1 | > 100 | > 100 µM | 74.3 | > 100 µM | 43.9 | > 100 µM | 5.34 | > 100 | 22.6 | > 100 µM | 12.8 | 72.6 µM | 0.437 | > 100 µM | > 100 | > 100 µM
